What was measured:
[1] = biological target: T1, P-glycoprotein (P-gp) (Homo sapiens, UniProt P08183); assay: Bidirectional transport of rhodamine123 through Caco-2 monolayers co-incubated with antimalarials (P-gp inhibitory properties); format: in vitro ADME; conditions: at 100 μM
T1 construct: In-vitro Caco-2 cell monolayers were used here as a model for potential drug absorption related problems and P-gp mediated transport of drugs; endogenous in cells; host or cells: Caco-2 (human colon carcinoma, ATCC)
Experimental: The Caco-2 cells were seeded on 0.6 cm^2 […] Millipore PCF™ filter inserts at the cell density of 65,000 cells/cm^2 as done previously in the lab. Briefly, the cells were grown for 21–24 days to allow full maturation and formation of tight monolayers. The initial experiments were conducted in mid-40s passage cells and repeated in early 80s passage Caco-2 cells. The Trans epithelial electrical resistance (TEER) was measured immediately before and after the experiment using an epithelial voltage/ohm meter and an ENDOHM 12 chamber (World precision instruments, Sarasota, FL). TEER values were measured both before and after the study with readings above 300 Ω.cm^2 considered as acceptable for tight junctions. […] In order to maintain equivalent transport medium (HBSS/HBSS with inhibitor) level both outside and inside the chambers, 300 μL was used as medium in the apical chambers and 600 μL in the basolateral chambers. […] Drugs were co-incubated with MRCP, BCRP and ATP hydrolysis blockers to determine the involvement of other efflux mechanisms. Prior to the experiment, the transport medium, HBSS or HBSS with P-gp inhibitors were pre-incubated with the cells for 30 minutes. Following incubation, inserts were placed in new well plates and donor chamber is replaced with drug or drug with inhibitor and the receiver chamber with blank HBSS or HBSS with inhibitor. Transport medium was collected from the receiver chamber after stirring at time intervals of 30, 60, 90 and 120 minutes and was replaced with the same volume of fresh HBSS, or HBSS with inhibitor, when P-gp inhibitors were used in the study. At the end of the experiment 100 μL of medium was removed from the donor chamber in addition to medium collected from the receiver chamber during the study. The cells were then washed thoroughly in cold (4°C) PBS and cell membranes attached to the inserts were sonicated for 10 minutes in a sonicating water bath and centrifuged at 10,000 g for 10 minutes. Supernatant was frozen at -80°C until assayed. The Papp values of three well plates were determined using methods modified from Artursson’s group as described by Crowe and Lemaire.
CL.vol=Aa/{[Cd0×Vd−[Aa+(Ca×Vs)]−(Ac)×n/nfin]/Vd}
CL.vol = clearance volume (mL), n = time (min), Aa = amount in acceptor compartment at time n (pmols), Cd0 = concentration in donor compartment at time zero (nM), Vd = volume of the donor compartment (mL), Ca = concentration in acceptor compartment at the previous time point (nM), Vs = sample volume of previous time point (mL), Ac = amount of compound associated with the cells (pmol), Nfin = final time point (min). Papp = Apparent permeability (cm/sec) Rate of clearance (mL/min)=CL.vol / n Papp (cm/sec)=Rate of clearance / Surface area (cm^2)
The cleared volume was plotted against time and the slope of the regression line was divided by the surface area to obtain the Papp values. […] Mean Papp for Bas-Ap direction was divided by the Ap-Bas direction to obtain the efflux ratio and values above two were considered as drugs having true efflux transport.

[2] = tested on: P-gp; conditions: 20 μM, 96 hours, Caco-2, western blot vs control
Experimental: Caco-2 cells were seeded in 6 well plates at 10,000 cells/cm^2 for 21 days. Drugs and drug combinations at 20 μM prepared in cell growth medium were added on to the mature cells and exposed for 96 hours. After drug exposure, cells were washed three times using PBS and cell lysate was prepared in lysis buffer. The protein content was quantified using the 96 well micro-Lowry protein assay and regulation of P-gp was determined using western blotting.
The membrane was blocked using 2% casein in TBS and washed with TBST. The primary antibody; Mdr (G-1) mouse monoclonal IgG2b 200 and mouse anti-β actin were used as the antibody for β-actin, the reference protein. The antibody; HRP linked goat anti mouse IgG was used as the secondary antibody. The washed membrane was incubated in a BioRad clarity chemiluminescent substrate and enhancer was read and semi quantified using the BIORAD Chemidoc MPT imager with Image LabTM software.

T1 sequence (P08183 whole entry): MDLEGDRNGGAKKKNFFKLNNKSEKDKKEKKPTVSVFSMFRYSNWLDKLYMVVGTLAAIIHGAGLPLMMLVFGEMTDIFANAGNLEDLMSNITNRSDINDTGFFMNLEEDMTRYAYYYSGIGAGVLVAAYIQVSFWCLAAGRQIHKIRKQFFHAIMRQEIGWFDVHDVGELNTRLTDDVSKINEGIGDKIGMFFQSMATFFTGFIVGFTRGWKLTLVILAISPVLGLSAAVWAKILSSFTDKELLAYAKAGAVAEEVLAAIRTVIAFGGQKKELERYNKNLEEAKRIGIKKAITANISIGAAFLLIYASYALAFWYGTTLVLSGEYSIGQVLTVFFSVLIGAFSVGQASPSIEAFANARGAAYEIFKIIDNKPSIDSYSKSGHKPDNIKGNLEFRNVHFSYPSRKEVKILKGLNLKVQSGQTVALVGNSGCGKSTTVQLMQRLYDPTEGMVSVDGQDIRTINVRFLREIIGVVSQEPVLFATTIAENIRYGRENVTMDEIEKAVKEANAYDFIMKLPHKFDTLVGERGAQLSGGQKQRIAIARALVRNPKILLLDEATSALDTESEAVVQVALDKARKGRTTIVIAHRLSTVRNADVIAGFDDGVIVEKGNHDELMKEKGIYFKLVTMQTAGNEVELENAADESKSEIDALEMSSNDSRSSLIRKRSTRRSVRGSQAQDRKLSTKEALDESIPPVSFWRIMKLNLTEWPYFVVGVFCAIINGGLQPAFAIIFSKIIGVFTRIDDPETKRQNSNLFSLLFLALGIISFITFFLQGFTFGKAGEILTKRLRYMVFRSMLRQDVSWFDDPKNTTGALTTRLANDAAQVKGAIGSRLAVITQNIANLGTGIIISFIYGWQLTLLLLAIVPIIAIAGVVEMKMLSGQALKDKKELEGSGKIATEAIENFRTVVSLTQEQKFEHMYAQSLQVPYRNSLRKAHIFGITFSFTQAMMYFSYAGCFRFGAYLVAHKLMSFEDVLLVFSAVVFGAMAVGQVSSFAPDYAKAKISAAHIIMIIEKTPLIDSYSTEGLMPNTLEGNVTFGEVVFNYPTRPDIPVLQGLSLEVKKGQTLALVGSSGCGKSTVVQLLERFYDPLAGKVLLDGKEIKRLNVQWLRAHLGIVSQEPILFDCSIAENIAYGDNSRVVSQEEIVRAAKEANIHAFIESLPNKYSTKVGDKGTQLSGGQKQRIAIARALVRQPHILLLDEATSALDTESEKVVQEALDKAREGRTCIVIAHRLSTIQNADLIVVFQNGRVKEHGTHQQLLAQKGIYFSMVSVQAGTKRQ

Which P-gp inhibitory properties [1] does the source give for `OC(c1cc(C(F)(F)F)nc2c(C(F)(F)F)cccc12)C1CCCCN1` (stereo not drawn) [MQ, mefloquine] here?
The P-gp inhibitory properties was “P-gp inhibitory properties”.

What about the inhibition at 120 min, 100 µM ([1]; human, Caco-2 cell monolayers, probe rhodamine 123, read-out: inhibition of efflux driven transport) of the same compound?
Its inhibition at 120 min, 100 µM is ~50%.

And the “regulation of P-gp expression” value [2]?
The value was “not observed”.

— article PMC4821601, “The Interactions of P-Glycoprotein with Antimalarial Drugs, Including Substrate Affinity, Inhibition and Regulation” (PLoS ONE, 2016)
